A short description of assay [1]: NIH/3T3 fibroblast cytotoxicity, dose response, cytotoxicity control for T. cruzi growth inhibitor project, cell-based, cherry-pick samples, set 2 (AID 651817). The class given is functional. The conditions noted are these: NIH3T3.
Assay [2] in a line: cells. The class given is functional, cell-based.
The nature of assay [3]: cells. It is filed as functional, cell-based. The source holds these as a separate data set.
Another assay has as its target Beta-galactosidase (Escherichia coli, UniProt Q8VNN2). Kind of assay: Dose response counterscreen for EBI2 assay utilizing the enzyme, b-galactosidase. It is filed as functional. In general terms: A counterscreen serves to expose hits that act by an unwanted route or on another target.
The next assay concerns Vero. Put plainly: Vero cell toxicity, dose response, cytotoxicity control, plate reader, cherry-pick samples (AID 687020). It is filed as functional, cell-based. The conditions noted are these: Chlorocebus sabaeus.
The target in assay [4] is Peroxisome proliferator-activated receptor gamma/Nuclear receptor coactivator 3 (Homo sapiens, UniProt P37231). Put plainly: TR-FRET dose response biochemical High Throughput Screening assay for agonists of the steroid receptor coactivator 3 (SRC-3) recruitment by the peroxisome proliferator-activated receptor gamma (PPAR gamma): non-selective agonists. [Related pubchem assays: 1301 (Confirmation screen.), 1048 (Primary screen.)]. It is filed as functional.

Assay [5] has as its target Peroxisome proliferator-activated receptor gamma/Nuclear receptor coactivator 1 (Homo sapiens, UniProt P37231). Put plainly: TR-FRET dose response biochemical High Throughput Screening assay for agonists of the steroid receptor coactivator 1 (SRC-1) recruitment by the peroxisome proliferator-activated receptor gamma (PPAR gamma): non-selective agonists. [Related pubchem assays (depositor defined):AID1300, AID1808, AID504735, AID631]. It is filed as protein assay.

In assay [6] the target is Peroxisome proliferator-activated receptor gamma/Nuclear receptor coactivator 2 (Homo sapiens, UniProt P37231). Put plainly: TR-FRET dose response biochemical High Throughput Screening assay for agonists of the steroid receptor coactivator 2 (SRC-2) recruitment by the peroxisome proliferator-activated receptor gamma (PPAR gamma): non-selective agonists. [Related pubchem assays: 1297, 1032 ]. The class given is functional. In general terms: TR-FRET usually uses a lanthanide donor and a delayed reading to cut background.

A further assay addresses Galanin receptor type 3 (Homo sapiens, UniProt O60755). Kind of assay: Fluorescence-based cell-based primary high throughput dose response assay to identify antagonists of the Galanin Receptor 3 (GalR3). It is filed as functional.
Assay [7] in a line: cells. The conditions noted are these: HEK-CNG. It is filed as functional, cell-based.
The target in assay [8] is T1, Beta-lactamase (Pseudomonas aeruginosa, UniProt Q79MP6). Put plainly: IMP-1 metallo-beta-lactamase inhibitors, dose response, selectivity assay for VIM-2 inhibitor project, biochemical, epi-absorbance (AID 1920).
For assay [9], the target named is Beta-lactamase (Salmonella choleraesuis (strain SC-B67), UniProt Q5J463). Put plainly: Epi-absorbance-based counterscreen for selective VIM-2 inhibitors: dose response biochemical high throughput screening assay to identify inhibitors of TEM-1 serine-beta-lactamase.
For assay [10], the target named is T1, Beta-lactamase. Put plainly: […] counterscreen for selective VIM-2 inhibitors: dose response biochemical high throughput screening assay to identify inhibitors of IMP-1 metallo-beta-lactamase.
The target in assay [11] is T2, DNA repair and recombination protein RAD54-like (Homo sapiens, UniProt Q92698).
T2 sequence (Q92698 whole entry): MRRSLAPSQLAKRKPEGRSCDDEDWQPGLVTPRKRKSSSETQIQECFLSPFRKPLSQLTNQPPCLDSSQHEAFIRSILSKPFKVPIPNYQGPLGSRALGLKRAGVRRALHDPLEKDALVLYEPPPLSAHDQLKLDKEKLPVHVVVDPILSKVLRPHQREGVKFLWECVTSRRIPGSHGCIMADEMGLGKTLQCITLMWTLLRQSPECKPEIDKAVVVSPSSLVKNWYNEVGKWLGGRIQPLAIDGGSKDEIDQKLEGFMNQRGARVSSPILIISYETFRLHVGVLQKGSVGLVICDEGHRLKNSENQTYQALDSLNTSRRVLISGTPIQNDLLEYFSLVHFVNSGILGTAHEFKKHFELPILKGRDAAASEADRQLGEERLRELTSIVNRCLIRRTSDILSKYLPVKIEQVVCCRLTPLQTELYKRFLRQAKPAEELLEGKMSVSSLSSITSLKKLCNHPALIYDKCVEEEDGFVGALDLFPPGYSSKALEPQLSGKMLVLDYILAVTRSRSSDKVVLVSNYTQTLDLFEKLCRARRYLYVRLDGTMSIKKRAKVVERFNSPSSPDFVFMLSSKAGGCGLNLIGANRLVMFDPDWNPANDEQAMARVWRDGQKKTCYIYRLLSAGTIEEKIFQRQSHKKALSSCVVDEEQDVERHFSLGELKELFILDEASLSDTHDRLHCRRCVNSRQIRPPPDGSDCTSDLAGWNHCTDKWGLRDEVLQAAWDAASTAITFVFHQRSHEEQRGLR
Put plainly: inhibitors of human RAD54 branch migration, confirmation, biochemical, fluorescence, cherry-picked samples, dose series (AID 651657). The class given is functional.

The target in assay [12] is T3, Low molecular weight phosphotyrosine protein phosphatase (Homo sapiens, UniProt P24666).
T3 sequence (P24666 whole entry): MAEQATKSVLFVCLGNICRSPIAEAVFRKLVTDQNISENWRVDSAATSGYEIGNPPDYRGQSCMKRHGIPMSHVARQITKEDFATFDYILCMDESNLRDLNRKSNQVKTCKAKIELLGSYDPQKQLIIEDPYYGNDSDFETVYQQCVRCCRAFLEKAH
It is filed as functional. The conditions noted are these: read-out: IC50_Mean.

The next assay concerns H4. Kind of assay: Luminescence Cell-Based Dose Response HTS to Identify Activators of 5'UTR Stem-Loop Driven Prion Protein mRNA Translation in H4 Neuroglioblastoma Cells. [Related pubchem assays: 1829 (Project Summary), 1814 (Primary HTS)]. The class given is functional. The conditions noted are these: Homo sapiens.
Assay [13] in a line: Luminescence Cell-Based Dose Confirmation HTS to Identify Activators of 5'UTR Stem-Loop Driven Alpha-Synuclein mRNA Translation in H4 Neuroglioblastoma Cells. [Related pubchem assays: 1829 (Project Summary), 1814 (Primary HTS)]. The class given is functional.
Assay [14] in a line: Luminescence Cell-Based Dose Response HTS to Identify Activators of Luciferase Translation or Activity in H4 […] Cells. [Related pubchem assays: 1829 (Project Summary), 1814 (Primary HTS)]. It is filed as functional.
Assay [15] concerns the target T3, Low molecular weight phosphotyrosine protein phosphatase. It is filed as functional. The conditions noted are these: read-out: IC50_Mean. This is another data set of the same source.
Assay [16] is described as follows: inhibitors of CMV-promoter luciferase reporter, dose response, counter-screen for Pax8 inhibitor project, cell-based, HEK293, luminescence, dry powder (AID 743020). The class given is functional. Background: In a reporter assay the amount or activity of a reporter protein is the signal.
In another assay the target is T4, Aminopeptidase N (Plasmodium falciparum FcB1/Columbia, UniProt O96935).
T4 sequence (O96935 whole entry): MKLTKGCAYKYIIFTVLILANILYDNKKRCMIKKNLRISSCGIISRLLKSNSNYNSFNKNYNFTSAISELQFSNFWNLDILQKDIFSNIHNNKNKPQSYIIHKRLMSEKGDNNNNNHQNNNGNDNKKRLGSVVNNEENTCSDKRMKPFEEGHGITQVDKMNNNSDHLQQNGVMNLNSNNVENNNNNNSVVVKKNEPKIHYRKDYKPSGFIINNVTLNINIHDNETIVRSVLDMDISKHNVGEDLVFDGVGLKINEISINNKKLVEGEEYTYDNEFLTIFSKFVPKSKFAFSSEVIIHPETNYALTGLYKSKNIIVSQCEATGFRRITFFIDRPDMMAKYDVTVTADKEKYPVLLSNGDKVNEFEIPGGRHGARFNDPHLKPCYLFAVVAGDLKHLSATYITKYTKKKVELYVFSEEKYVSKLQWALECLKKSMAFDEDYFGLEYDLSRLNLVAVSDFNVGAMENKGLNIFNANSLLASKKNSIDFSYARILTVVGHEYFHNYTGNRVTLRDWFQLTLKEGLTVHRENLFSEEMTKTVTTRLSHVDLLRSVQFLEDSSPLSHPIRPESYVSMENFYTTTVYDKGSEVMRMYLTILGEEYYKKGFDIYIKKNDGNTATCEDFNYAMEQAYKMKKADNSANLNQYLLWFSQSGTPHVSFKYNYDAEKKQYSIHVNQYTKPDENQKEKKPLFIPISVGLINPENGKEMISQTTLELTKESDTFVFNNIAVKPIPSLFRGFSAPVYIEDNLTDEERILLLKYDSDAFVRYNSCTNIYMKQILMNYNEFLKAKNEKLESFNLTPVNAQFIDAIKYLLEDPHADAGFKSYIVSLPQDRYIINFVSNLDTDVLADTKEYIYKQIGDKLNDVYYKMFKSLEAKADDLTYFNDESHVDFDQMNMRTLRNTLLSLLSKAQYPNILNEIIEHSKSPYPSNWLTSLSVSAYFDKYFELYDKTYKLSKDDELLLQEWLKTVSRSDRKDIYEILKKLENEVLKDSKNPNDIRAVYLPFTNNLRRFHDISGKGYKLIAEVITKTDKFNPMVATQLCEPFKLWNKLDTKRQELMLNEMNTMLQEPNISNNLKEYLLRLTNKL
Kind of assay: P. falciparum M1AAP inhibitors, biochemical, fluorogenic H-Leu-NHMec substrate, 1536-well (AID 1445). On the set-up: species or system Plasmodium falciparum 3D7, 3D7.

In another assay the target is Phospholipase A2 (Homo sapiens, UniProt P04054). The class given is functional.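 Further: confirmatory dose-response counterscreen on phospholipase A2, testing hits that came from an ultra-high-throughput screen for ATG4B inhibitors.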
A further assay has as its target T5, Cysteine protease ATG4B (Homo sapiens, UniProt Q9Y4P1).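 Further: Fluorescence-based dose-response confirmation assay measuring inhibition of ATG4B activity.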
T5 sequence (Q9Y4P1 whole entry): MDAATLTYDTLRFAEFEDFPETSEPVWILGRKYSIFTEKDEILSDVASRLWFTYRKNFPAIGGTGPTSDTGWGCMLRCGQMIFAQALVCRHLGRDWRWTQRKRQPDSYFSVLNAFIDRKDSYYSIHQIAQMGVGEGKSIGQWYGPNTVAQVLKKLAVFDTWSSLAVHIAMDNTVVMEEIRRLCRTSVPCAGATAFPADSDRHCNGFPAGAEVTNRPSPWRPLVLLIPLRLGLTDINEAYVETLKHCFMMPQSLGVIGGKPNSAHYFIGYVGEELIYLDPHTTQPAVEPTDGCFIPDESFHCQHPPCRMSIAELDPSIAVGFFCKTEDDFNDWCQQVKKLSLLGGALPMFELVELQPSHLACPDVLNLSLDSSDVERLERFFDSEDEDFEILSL
The class given is functional.

The nature of assay [17]: T. cruzi growth inhibition in host cells, dose response, cell-based, plate reader, dry powder, set 2 (AID 652275). It is filed as functional.
A short description of assay [18]: HEK293T cell cytotoxicity, dose response, cytotoxicity control for HIV Vif inhibitor project, cherry-picks (AID 652208). It is filed as functional, cell-based.
A further assay addresses Cytochrome P450 2C9 (Homo sapiens, UniProt P11712).
The target of a further assay is Cytochrome P450 3A4 (Homo sapiens, UniProt P08684).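 Further: CYP3A4 tested as one member of a cytochrome P450 panel screen.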

Activity calls are given as the source filed them. Some results are limits rather than exact numbers.

T1 sequence (Q79MP6 whole entry): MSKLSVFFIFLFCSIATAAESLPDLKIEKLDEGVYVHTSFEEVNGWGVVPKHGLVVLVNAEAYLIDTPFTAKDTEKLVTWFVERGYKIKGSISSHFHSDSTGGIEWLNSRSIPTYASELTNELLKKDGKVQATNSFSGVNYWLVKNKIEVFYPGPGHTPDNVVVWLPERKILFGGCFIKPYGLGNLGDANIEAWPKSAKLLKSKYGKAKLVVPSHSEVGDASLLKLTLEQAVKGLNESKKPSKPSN
Beta-galactosidase, sequence (Q8VNN2 whole entry): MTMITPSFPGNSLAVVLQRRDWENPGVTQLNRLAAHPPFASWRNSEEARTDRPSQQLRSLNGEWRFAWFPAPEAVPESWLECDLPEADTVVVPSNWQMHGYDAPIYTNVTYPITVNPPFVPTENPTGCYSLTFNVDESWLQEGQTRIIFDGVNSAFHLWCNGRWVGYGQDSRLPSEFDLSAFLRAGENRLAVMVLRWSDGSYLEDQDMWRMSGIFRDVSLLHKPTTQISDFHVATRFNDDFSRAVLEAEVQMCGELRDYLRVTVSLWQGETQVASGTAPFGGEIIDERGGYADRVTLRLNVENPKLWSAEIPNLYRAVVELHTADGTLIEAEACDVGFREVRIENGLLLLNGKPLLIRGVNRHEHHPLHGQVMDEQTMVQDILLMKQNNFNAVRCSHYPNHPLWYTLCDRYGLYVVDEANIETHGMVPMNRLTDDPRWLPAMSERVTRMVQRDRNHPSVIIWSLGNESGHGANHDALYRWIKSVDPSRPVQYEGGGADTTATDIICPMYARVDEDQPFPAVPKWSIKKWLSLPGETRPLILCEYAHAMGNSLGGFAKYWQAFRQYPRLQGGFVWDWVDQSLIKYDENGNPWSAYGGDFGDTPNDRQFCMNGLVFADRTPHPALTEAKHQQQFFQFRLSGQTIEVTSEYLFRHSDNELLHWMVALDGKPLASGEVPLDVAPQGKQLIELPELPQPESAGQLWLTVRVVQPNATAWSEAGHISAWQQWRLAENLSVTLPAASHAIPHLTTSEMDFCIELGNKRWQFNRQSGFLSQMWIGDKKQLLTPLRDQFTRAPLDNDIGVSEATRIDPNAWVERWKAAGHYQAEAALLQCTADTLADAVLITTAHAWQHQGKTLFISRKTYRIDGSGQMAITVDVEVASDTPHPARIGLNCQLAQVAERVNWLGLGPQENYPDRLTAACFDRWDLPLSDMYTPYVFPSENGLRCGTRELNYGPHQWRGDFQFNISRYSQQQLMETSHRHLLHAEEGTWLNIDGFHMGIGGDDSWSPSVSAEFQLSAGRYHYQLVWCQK
Beta-lactamase (Salmonella choleraesuis (strain SC-B67), UniProt Q5J463), sequence (Q5J463 whole entry): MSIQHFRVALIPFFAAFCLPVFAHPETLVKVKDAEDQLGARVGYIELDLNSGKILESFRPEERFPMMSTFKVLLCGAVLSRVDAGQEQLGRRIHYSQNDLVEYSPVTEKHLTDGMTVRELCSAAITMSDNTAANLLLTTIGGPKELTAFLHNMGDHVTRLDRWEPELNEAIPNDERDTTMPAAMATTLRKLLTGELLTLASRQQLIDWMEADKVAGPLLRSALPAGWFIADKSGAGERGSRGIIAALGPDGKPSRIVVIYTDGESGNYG
Cytochrome P450 3A4, sequence (P08684 whole entry): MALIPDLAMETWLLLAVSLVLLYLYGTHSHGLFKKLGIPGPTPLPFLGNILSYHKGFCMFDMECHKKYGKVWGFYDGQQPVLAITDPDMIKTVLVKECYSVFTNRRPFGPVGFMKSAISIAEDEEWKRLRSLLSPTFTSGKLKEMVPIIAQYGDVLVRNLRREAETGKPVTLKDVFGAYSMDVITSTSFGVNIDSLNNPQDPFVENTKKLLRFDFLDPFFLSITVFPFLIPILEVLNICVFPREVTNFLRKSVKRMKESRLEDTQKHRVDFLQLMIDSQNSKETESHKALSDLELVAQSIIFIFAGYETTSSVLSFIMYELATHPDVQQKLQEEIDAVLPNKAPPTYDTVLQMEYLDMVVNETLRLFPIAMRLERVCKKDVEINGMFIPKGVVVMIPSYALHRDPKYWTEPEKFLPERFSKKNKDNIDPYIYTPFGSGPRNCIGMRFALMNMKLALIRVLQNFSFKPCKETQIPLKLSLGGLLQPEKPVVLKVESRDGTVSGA
Phospholipase A2, sequence (P04054 whole entry): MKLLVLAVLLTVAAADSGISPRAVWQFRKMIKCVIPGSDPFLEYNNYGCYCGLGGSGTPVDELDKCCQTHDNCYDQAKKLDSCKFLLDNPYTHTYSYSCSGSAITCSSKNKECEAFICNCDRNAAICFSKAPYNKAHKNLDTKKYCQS
Peroxisome proliferator-activated receptor gamma/Nuclear receptor coactivator 2, sequence (P37231 whole entry): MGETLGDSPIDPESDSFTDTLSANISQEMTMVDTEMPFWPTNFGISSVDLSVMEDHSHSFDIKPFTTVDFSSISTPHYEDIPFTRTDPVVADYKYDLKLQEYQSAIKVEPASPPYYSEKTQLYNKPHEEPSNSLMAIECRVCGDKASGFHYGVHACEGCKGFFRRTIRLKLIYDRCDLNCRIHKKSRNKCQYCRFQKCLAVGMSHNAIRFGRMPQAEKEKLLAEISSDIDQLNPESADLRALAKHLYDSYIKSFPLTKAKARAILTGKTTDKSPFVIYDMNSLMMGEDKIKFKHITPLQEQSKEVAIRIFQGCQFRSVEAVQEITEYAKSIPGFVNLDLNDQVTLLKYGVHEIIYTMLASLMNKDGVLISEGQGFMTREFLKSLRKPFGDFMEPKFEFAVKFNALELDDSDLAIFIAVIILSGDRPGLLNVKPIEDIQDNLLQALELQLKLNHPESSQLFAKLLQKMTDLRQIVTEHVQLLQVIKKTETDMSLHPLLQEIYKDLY
Peroxisome proliferator-activated receptor gamma/Nuclear receptor coactivator 2, sequence (Q15596 whole entry, further chain): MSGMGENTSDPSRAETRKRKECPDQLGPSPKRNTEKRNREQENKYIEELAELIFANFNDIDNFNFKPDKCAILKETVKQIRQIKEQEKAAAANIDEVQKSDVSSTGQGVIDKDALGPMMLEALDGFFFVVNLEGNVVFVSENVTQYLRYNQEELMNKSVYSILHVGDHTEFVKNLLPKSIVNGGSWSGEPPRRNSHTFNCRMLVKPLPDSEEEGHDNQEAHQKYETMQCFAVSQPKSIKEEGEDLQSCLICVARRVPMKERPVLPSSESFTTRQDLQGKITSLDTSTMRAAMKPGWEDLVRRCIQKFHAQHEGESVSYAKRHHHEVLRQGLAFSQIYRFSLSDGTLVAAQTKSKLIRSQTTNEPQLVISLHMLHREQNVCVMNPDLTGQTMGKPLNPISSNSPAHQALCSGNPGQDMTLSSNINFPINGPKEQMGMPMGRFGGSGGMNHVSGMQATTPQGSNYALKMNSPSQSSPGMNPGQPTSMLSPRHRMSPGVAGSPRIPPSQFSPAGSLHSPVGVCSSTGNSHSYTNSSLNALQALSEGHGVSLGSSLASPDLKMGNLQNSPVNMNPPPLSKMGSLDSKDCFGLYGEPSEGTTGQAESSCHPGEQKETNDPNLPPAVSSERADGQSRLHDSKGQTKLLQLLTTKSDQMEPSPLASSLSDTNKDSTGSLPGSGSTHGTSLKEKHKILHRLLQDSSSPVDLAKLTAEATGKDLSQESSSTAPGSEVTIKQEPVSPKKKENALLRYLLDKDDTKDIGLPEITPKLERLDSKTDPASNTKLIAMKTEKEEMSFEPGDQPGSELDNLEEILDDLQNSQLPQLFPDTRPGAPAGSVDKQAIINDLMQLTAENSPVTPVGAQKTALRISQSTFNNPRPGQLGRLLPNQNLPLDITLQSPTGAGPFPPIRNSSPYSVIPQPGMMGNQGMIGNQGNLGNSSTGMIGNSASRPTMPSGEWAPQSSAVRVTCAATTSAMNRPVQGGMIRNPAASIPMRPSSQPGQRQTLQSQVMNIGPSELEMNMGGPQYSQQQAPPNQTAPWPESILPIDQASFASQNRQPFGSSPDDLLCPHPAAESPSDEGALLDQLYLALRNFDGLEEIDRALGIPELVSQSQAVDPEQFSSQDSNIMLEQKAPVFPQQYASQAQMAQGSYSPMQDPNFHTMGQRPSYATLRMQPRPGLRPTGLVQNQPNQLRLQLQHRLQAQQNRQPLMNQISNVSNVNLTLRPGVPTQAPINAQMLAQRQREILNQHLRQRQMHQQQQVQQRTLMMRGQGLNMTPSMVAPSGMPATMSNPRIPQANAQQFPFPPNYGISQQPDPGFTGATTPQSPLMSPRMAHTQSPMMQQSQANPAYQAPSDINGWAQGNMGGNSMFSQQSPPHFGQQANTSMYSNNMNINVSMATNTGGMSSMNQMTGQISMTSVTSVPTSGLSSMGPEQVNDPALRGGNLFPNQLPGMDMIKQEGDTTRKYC
Cytochrome P450 2C9, sequence (P11712 whole entry): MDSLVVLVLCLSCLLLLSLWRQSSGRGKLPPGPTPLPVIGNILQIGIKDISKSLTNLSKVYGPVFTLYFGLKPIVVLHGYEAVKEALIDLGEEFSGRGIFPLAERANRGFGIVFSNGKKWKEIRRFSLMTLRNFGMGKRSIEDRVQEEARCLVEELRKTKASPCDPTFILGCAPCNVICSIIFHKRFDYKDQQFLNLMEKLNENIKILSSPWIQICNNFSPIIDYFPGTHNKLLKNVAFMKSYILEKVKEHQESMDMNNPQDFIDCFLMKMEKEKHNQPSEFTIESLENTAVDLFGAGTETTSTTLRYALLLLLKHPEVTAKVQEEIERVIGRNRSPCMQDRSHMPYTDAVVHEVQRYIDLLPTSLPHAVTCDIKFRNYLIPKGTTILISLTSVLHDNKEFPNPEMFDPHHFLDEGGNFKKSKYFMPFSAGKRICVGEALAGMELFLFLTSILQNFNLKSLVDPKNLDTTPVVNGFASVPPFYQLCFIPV
Galanin receptor type 3, sequence (O60755 whole entry): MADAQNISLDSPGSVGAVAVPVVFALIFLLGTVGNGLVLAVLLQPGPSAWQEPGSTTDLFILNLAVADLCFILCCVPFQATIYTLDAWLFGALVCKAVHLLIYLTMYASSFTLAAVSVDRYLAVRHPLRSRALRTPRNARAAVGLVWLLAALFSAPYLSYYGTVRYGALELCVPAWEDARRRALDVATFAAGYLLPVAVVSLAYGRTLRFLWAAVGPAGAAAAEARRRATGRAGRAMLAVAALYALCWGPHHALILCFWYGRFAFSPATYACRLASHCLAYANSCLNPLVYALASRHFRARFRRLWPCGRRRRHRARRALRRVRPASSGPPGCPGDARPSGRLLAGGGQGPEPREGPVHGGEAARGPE

Usually AC50 stands for the concentration giving half of the maximal activity seen. As to `C[C@@H]1CN([C@@H](C)CO)C(=O)c2cccc(NC(=O)c3ccncc3)c2O[C@@H]1CN(C)Cc1ccccc1`, the AC50 in assay [1] was 39 µM (inactive).

Usually EC50 stands for the concentration giving half of the maximal effect. Take `O=C(Nc1ccccc1)Nc1nncs1`: in “cells [2]”, the IC50 was > 29.9 µM (inactive). The EC50 in “cells [3]” was > 29.9 µM (inactive).

For the molecule `CO/N=C/c1ccc(Oc2ccc(C)cc2)nc1`, at Beta-galactosidase, the IC50 is > 80 µM (inactive).

On to `O=C(CN1CCC(O)(c2cccc(C(F)(F)F)c2)CC1)NCCc1ccccc1`, for which the AC50 with Vero was 11.6 µM (active).

For the molecule `CNC(=S)N1N=C(c2ccc(Br)cc2)CC1c1ccc(OC)cc1` (stereo not drawn), the IC50 on Beta-galactosidase is > 80 µM (inactive). Moreover, the EC50 in assay [4] is 49.9 µM (not active); in assay [5] it was 14.5 µM (inactive); in [6], 17.3 µM (not active).

Turning to `COc1ccc(CN2CCC(C(=O)Nc3ccc(Oc4ccccc4)nc3)CC2)cc1F`, on Galanin receptor type 3, the IC50 was 3.56 µM (active). Also, in the assay “cells [7]”, the EC50 was > 29.9 µM (inactive).

For `Cc1cc(C(=O)OCC(=O)NC(=O)c2cccn2C)c2ccccc2n1`, the IC50 at Beta-lactamase [8], at Beta-lactamase [9] and on Beta-lactamase [10] was > 59.6 µM (inactive) in each case.

For `Cc1ccc(-c2nc(NCCN3CCOCC3)c3ccccc3n2)cc1`, in assay [11], the AC50 is 24.8 µM (active). Besides, the IC50 in [12] is 30.7 µM (inactive); in [15] it was 16 µM (active). For the same molecule, the EC50 in the assay on H4 was 16.9 µM (active); in assay [13], 56.3 µM (active); in [14] it was 21.1 µM (active).

With `CC1CCN(CCOc2ccc(OCc3ccccc3)cc2)CC1`, the values for the AC50 (in the assay on Vero; in [16]) were 25.9 µM (active) and < 9.29 µM (active), respectively.

For `Cc1cc(OCc2cc(C(=O)O)oc2C)c2c3c(c(=O)oc2c1)CCCC3`, the IC50 on Aminopeptidase N is 66.4 µM (active); at Phospholipase A2, 13.5 µM (active); on Beta-lactamase [8], > 59.6 µM (inactive); on Beta-lactamase [9], > 59.6 µM (inactive); on Cysteine protease ATG4B, 17.3 µM (active); at Beta-lactamase [10] it was > 59.6 µM (inactive).

Regarding `CC(C)N1C[C@@H](CN(C)Cc2ccc(Cl)cc2)Oc2c(NC(=O)c3ccncc3)cccc2C1=O`, the AC50 in [17] is 0.0045 µM (active).

As to `CCCc1cc(=O)oc2cc(OCc3cc(OC)c(OC)c(OC)c3)c(Cl)cc12`, the results for the AC50 (in assay [18]; at Cytochrome P450 2C9; on Cytochrome P450 3A4) were > 52 µM (inactive), 1 µM (inconclusive) and 3.55 µM (inconclusive), respectively.

Turning to `C[C@H]1CN([C@@H](C)CO)C(=O)c2cccc(NC(=O)c3nc4ccccc4s3)c2O[C@@H]1CN(C)Cc1ccc2c(c1)OCO2`, the AC50 in assay [1] was 9.31 µM (active).
